Results reported in ChEMBL document CHEMBL5442175, “EUbOPEN Chemogenomics Library - PDSP Secondary Binding” (2024).
Structures can show the parent of a compound that is named as a salt.

Legend:
[1] = target: 5-hydroxytryptamine receptor 1D (Homo sapiens, UniProt P28221); assay: (§1) PDSP Secondary Binding target: HTR1D - Compounds are tested at 10 uM concentration, plate are incubated at room temperature in the dark for 90 minutes. Reaction are stopped by vacuum filtration onto 0.3% polyethyleneimine soaked filter mats using Filtermate harvester. Scintillation cocktail is then melted onto microwave-dried filters on a hot plate and the radio activity is counted in Microbia counter.
[2] = target: T1, Alpha-2A adrenergic receptor (Homo sapiens, UniProt P08913); assay: as §1, with “ADRA2A” for “HTR1D”
T1 sequence (P08913 whole entry): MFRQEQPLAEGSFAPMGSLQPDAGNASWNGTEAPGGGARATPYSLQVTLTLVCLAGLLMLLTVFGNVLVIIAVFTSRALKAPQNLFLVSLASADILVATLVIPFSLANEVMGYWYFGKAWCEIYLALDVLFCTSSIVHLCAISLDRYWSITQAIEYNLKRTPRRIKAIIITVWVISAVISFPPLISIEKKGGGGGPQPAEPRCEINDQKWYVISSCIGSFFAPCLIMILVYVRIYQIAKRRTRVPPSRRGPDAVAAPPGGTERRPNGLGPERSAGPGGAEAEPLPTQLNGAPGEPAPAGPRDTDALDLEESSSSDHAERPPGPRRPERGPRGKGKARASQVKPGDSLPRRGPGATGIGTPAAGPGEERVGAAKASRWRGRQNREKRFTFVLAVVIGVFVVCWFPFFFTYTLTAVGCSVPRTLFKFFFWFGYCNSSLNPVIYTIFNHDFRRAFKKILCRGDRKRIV

[3] = target: T2, 5-hydroxytryptamine receptor 2C (Homo sapiens, UniProt P28335); assay: as §1, with “HTR2C” for “HTR1D”
T2 sequence (P28335 whole entry): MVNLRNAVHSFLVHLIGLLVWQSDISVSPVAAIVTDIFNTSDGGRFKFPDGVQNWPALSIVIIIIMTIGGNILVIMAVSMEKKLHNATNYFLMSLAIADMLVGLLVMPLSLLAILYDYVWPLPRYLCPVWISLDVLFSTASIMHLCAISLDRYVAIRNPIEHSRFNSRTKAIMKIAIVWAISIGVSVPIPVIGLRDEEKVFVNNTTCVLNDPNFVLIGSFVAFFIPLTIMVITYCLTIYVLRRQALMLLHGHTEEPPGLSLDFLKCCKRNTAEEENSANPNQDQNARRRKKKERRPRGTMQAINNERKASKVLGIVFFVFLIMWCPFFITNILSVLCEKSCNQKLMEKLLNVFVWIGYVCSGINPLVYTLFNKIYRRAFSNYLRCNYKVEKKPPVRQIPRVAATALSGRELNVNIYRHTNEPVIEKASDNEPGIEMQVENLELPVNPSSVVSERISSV

[4] = target: T3, Alpha-2B adrenergic receptor (Homo sapiens, UniProt P18089); assay: as §1, with “ADRA2B” for “HTR1D”
T3 sequence (P18089 whole entry): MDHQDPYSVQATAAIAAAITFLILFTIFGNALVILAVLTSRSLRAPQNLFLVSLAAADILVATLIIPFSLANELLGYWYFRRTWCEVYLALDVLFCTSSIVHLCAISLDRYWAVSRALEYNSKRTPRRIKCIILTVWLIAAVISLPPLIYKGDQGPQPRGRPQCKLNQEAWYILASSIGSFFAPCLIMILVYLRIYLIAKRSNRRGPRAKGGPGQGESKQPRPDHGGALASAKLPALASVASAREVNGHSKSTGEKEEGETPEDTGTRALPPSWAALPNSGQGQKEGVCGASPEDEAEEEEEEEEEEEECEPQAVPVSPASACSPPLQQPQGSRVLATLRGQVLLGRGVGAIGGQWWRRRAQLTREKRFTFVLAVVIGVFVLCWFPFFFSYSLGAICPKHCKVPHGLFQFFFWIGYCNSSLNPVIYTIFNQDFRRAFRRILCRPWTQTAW

[5] = target: D(3) dopamine receptor (Homo sapiens, UniProt P35462); assay: as §1, with “DRD3” for “HTR1D”
[6] = target: Sigma intracellular receptor 2 (Homo sapiens, UniProt Q5BJF2); assay: as §1, with “TMEM97” for “HTR1D”
[7] = target: T4, Alpha-1B adrenergic receptor (Homo sapiens, UniProt P35368); assay: as §1, with “ADRA1B” for “HTR1D”
T4 sequence (P35368 whole entry): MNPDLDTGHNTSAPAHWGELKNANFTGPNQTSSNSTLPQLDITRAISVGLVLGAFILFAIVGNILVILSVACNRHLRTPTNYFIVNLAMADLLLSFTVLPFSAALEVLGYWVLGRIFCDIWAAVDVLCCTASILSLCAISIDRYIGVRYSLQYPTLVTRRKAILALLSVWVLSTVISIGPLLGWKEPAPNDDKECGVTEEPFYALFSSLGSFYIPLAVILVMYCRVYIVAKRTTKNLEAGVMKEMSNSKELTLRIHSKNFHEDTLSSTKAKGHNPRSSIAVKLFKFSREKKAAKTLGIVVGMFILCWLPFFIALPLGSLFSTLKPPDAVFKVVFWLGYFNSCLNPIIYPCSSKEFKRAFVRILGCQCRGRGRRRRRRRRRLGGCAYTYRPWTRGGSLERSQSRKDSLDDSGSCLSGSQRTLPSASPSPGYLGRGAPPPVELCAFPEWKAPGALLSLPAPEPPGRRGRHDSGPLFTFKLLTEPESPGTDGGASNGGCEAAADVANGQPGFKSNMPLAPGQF

[8] = target: T5, Alpha-1D adrenergic receptor (Homo sapiens, UniProt P25100); assay: as §1, with “ADRA1D” for “HTR1D”
T5 sequence (P25100 whole entry): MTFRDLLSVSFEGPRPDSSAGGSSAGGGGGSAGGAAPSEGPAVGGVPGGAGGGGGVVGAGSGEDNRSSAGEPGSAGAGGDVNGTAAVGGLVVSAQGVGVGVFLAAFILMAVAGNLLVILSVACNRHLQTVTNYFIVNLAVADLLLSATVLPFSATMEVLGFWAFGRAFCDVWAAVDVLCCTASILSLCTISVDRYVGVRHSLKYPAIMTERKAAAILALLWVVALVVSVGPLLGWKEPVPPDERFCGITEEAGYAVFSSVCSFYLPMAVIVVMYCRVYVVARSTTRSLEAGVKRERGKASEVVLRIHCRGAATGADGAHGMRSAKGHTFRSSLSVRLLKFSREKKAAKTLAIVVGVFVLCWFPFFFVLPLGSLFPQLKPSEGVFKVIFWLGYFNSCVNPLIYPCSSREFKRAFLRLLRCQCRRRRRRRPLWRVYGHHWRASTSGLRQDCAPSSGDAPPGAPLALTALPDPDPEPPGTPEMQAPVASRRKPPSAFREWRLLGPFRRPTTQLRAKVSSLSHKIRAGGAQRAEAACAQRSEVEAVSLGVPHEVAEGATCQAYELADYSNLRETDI

[9] = target: Sodium-dependent serotonin transporter (Homo sapiens, UniProt P31645); assay: as §1, with “SLC6A4” for “HTR1D”
[10] = target: Sodium-dependent noradrenaline transporter (Homo sapiens, UniProt P23975); assay: as §1, with “SLC6A2” for “HTR1D”
[11] = target: T6, D(4) dopamine receptor (Homo sapiens, UniProt P21917); assay: as §1, with “DRD4” for “HTR1D”
T6 sequence (P21917 whole entry): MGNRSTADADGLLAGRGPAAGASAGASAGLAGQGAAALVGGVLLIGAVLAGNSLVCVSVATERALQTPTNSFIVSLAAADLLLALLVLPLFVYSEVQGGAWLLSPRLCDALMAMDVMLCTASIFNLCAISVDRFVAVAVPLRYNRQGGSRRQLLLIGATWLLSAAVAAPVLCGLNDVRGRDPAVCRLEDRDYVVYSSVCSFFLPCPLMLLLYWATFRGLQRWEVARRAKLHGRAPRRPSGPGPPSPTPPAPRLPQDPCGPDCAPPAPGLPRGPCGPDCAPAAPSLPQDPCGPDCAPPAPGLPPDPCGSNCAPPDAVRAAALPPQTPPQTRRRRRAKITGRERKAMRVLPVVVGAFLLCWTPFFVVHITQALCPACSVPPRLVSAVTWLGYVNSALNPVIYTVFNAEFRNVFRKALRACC

[12] = target: 5-hydroxytryptamine receptor 6 (Homo sapiens, UniProt P50406); assay: as §1, with “HTR6” for “HTR1D”
[13] = target: 5-hydroxytryptamine receptor 5A (Homo sapiens, UniProt P47898); assay: as §1, with “HTR5A” for “HTR1D”
[14] = target: 5-hydroxytryptamine receptor 7 (Homo sapiens, UniProt P34969); assay: as §1, with “HTR7” for “HTR1D”
[15] = target: Translocator protein (Homo sapiens, UniProt P30536); assay: as §1, with “TSPO” for “HTR1D”
[16] = target: 5-hydroxytryptamine receptor 1B (Homo sapiens, UniProt P28222); assay: as §1, with “HTR1B” for “HTR1D”
[17] = target: Sigma non-opioid intracellular receptor 1 (Homo sapiens, UniProt Q99720); assay: as §1, with “SIGMAR1” for “HTR1D”
[18] = target: Kappa-type opioid receptor (Homo sapiens, UniProt P41145); assay: as §1, with “OPRK1” for “HTR1D”
[19] = target: Histamine H1 receptor (Homo sapiens, UniProt P35367); assay: as §1, with “HRH1” for “HTR1D”
[20] = target: Mu-type opioid receptor (Homo sapiens, UniProt P35372); assay: as §1, with “OPRM1” for “HTR1D”
Sequence of Mu-type opioid receptor (P35372 whole entry): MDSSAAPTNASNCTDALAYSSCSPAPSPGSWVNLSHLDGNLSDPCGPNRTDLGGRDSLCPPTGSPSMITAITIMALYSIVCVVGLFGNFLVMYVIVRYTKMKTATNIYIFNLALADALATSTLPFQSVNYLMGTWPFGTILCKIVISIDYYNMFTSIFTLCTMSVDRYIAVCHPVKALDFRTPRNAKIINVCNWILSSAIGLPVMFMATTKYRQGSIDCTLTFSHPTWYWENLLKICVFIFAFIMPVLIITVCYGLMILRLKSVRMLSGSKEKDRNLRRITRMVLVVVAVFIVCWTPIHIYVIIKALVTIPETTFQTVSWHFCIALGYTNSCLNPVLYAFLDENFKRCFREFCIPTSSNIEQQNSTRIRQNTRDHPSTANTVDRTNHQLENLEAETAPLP

Sequence of Sodium-dependent serotonin transporter (P31645 whole entry): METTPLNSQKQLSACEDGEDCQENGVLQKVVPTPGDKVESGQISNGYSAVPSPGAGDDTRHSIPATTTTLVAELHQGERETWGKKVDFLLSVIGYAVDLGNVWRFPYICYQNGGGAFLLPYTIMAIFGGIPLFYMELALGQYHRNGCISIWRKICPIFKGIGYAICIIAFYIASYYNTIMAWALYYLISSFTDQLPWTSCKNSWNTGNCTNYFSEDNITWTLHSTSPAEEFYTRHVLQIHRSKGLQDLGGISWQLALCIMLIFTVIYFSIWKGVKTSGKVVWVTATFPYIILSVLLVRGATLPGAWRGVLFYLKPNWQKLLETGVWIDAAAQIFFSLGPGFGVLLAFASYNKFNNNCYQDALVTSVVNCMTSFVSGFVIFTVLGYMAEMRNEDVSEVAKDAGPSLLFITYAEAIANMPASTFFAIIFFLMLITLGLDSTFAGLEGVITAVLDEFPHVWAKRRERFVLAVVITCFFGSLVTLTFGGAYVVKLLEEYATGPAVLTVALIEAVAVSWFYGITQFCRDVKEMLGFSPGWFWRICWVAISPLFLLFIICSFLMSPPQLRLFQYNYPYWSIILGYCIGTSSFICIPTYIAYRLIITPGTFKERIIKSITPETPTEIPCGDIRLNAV
Sequence of Sodium-dependent noradrenaline transporter (P23975 whole entry): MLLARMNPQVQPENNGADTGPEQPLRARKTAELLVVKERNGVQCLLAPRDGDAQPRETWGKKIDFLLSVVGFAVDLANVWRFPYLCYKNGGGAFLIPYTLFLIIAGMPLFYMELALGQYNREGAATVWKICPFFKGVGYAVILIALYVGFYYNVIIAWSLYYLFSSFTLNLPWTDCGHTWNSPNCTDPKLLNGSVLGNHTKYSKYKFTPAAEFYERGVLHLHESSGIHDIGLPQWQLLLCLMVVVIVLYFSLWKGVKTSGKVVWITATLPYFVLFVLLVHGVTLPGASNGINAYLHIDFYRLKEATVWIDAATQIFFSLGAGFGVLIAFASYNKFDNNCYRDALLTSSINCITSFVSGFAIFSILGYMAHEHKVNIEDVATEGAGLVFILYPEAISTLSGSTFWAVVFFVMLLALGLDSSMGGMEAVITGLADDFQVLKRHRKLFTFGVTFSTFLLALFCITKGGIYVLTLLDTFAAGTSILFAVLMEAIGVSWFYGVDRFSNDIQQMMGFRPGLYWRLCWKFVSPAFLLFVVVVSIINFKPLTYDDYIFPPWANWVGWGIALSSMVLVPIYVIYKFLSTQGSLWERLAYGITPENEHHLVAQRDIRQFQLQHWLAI
Sequence of D(3) dopamine receptor (P35462 whole entry): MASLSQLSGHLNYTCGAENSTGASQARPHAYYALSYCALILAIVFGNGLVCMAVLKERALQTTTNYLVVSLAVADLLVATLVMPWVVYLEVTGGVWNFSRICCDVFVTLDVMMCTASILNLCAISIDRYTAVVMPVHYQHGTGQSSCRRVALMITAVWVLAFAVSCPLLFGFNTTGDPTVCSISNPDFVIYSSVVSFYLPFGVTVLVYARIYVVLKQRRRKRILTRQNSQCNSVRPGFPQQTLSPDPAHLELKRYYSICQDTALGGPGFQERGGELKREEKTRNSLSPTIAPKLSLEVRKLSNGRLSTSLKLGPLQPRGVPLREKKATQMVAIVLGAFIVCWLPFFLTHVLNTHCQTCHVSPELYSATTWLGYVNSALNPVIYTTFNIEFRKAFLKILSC
Sequence of Sigma intracellular receptor 2 (Q5BJF2 whole entry): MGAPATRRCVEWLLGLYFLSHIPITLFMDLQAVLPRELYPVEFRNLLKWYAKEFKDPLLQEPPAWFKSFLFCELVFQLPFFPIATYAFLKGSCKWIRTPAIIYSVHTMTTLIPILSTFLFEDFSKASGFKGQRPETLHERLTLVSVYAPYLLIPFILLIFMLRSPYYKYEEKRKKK
Sequence of 5-hydroxytryptamine receptor 6 (P50406 whole entry): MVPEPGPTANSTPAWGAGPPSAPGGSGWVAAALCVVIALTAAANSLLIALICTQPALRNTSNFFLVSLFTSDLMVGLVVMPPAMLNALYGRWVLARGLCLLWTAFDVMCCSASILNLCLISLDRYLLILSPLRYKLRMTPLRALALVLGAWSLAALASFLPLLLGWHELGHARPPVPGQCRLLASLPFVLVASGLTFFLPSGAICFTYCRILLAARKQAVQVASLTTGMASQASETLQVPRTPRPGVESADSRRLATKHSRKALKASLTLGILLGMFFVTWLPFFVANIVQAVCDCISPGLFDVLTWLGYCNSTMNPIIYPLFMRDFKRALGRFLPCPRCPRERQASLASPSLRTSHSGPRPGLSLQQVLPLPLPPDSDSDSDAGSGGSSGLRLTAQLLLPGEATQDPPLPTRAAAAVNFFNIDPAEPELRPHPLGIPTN
Sequence of 5-hydroxytryptamine receptor 7 (P34969 whole entry): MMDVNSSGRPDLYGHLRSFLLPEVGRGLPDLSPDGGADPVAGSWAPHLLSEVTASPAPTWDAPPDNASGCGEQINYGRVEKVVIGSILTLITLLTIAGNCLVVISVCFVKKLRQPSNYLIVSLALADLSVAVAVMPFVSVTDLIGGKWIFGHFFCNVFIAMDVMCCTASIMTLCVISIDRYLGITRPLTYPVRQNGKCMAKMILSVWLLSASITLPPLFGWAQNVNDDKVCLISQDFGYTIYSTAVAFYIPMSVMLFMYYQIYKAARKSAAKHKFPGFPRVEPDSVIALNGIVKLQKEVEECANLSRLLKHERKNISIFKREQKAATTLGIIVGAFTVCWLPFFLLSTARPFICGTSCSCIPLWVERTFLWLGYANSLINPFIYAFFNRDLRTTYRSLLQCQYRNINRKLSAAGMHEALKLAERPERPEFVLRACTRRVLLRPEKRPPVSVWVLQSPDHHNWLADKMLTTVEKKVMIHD
Sequence of 5-hydroxytryptamine receptor 1B (P28222 whole entry): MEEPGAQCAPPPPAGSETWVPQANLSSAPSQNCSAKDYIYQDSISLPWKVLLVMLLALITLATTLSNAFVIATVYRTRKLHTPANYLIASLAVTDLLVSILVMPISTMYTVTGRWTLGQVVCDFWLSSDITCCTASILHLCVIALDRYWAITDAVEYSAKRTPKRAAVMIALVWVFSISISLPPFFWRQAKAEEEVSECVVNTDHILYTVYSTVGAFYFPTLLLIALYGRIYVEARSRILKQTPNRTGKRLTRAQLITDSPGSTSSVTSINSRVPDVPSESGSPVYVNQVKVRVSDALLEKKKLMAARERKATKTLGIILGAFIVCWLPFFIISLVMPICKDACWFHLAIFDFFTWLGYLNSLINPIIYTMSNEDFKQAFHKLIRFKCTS
Sequence of Sigma non-opioid intracellular receptor 1 (Q99720 whole entry): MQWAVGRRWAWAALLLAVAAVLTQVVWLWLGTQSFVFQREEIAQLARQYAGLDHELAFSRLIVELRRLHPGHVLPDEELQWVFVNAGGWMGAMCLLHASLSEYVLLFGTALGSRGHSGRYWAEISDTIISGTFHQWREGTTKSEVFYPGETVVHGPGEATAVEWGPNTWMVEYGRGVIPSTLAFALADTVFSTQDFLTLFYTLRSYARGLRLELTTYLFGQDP
Sequence of 5-hydroxytryptamine receptor 5A (P47898 whole entry): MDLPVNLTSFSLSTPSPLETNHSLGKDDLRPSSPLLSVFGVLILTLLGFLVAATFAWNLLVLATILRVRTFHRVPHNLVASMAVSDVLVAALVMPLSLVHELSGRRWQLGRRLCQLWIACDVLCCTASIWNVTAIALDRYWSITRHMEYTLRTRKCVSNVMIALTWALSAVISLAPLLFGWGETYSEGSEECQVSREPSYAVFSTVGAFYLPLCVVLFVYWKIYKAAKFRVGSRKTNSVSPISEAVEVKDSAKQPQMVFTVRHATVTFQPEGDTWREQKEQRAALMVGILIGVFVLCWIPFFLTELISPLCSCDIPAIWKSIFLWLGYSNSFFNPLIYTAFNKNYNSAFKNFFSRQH
Sequence of Kappa-type opioid receptor (P41145 whole entry): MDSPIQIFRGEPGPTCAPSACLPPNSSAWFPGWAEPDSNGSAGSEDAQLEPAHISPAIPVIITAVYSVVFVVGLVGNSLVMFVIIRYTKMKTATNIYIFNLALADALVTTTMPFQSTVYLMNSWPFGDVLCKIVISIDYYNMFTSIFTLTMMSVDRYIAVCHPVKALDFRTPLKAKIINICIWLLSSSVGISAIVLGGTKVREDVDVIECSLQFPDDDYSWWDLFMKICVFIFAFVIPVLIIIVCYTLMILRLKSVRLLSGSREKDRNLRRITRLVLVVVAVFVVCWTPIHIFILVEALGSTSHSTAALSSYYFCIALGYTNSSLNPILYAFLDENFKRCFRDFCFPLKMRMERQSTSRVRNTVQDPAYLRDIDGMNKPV
Sequence of 5-hydroxytryptamine receptor 1D (P28221 whole entry): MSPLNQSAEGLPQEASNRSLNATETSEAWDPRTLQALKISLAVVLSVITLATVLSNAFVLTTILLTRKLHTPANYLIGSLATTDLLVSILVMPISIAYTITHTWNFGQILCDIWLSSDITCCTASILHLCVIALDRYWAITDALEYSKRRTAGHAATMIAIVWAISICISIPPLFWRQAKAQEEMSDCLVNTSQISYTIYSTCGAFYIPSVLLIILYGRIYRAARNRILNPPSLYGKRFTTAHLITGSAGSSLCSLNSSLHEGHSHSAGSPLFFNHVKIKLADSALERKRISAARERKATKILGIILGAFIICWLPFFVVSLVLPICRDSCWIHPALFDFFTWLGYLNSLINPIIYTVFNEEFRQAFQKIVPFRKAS

Structure (SMILES)	Ki [5] [nM]	Ki [6] [nM]	Ki [8] [nM]	Ki [9] [nM]	Ki [10] [nM]	also measured
CCCCCCCCCCCCCCCCOC[C@H](COP(=O)([O-])OCC[N+](C)(C)C)OC(C)=O	1760	1820	2050			Ki [1]: 8520 nM; Ki [2]: > 10000 nM; Ki [3]: 3080 nM; Ki [4]: > 10000 nM; Ki [7]: 4490 nM
N[C@H](C(=O)O)c1ccc(C(=O)O)c(C(=O)O)c1	2040			7610	7550	
COc1ccc(S(=O)(=O)c2cc(OC)ccc2S(=O)(=O)c2ccc([C@H](C)NS(C)(=O)=O)cc2)cc1	559					Ki [11]: 1160 nM; Ki [12]: 280 nM
O=C(O)c1n[nH]c2c1C[C@H]1C[C@@H]21				2430	> 10000	Ki [13]: > 10000 nM
Brc1c(NC2=NCCN2)ccc2nccnc12		1530	2110			Ki [7]: 4200 nM; Ki [14]: 1110 nM
CCCNS(=O)(=O)Nc1ncnc(OCCOc2ncc(Br)cn2)c1-c1ccc(Br)cc1	1000			> 10000	4830	Ki [15]: 2120 nM
C[C@H](CO)Nc1nc(SCc2cccc(Cl)c2F)nc2[nH]c(=O)sc12					> 10000	Ki [16]: 8410 nM
N#Cc1c(N)nc(SCC(N)=O)c(C#N)c1-c1ccc(OCC2CC2)cc1						Ki [17]: 1000 nM; Ki [16]: 6670 nM; Ki [18]: 407 nM
CCCCCNC(=O)NS(=O)(=O)c1cc([N+](=O)[O-])ccc1NC1CCCCC1	2580			7770	6910	
Clc1cccc(Cl)c1N=C1NCCN1 [CLONIDINE HYDROCHLORIDE]		2780	1980			Ki [3]: 6950 nM; Ki [7]: 2630 nM; Ki [14]: 879 nM
CCCn1c(=O)c2[nH]c(-c3cnn(Cc4cccc(C(F)(F)F)c4)c3)nc2n(CC)c1=O [GS 6201]			> 10000			
CC(C)NCC(O)COc1cccc2ccccc12 (stereo unspecified) [PROPRANOLOL HYDROCHLORIDE]		353				Ki [17]: 95.4 nM; Ki [12]: 542 nM
Cc1ccccc1C(=O)Nc1ccc(C(=O)N2CCCC(O)c3cc(Cl)ccc32)c(C)c1 (stereo unspecified) [TOLVAPTAN]		1030				Ki [19]: 6690 nM; Ki [3]: 4860 nM; Ki [20]: 410 nM
